Patent US8952024B2, “Herbicidal pyrimidone derivatives” (E I du Pont de Nemours and Company, priority 2009, dated 2015)
Read-outs that look alike come from different tables or passages of the source.

Legend:
Assay in all cases: Test B pre-/postemergence plant response
Type in all cases: in vivo
[1] = tested on: goosegrass (Eleusine indica); details: Preemergence
Method in brief: (§1)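 Test compounds, formulated in a non-phytotoxic solvent mixture with surfactant, are applied to the soil surface (loam and sand blend) right after seeding, or sprayed over plants at the 1- to 4-leaf stage grown in peat moss/vermiculite medium. After 13 to 15 days under glasshouse conditions, each species is scored visually from 0 (no effect) to 100 (complete control) against controls.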

[2] = tested on: large crabgrass (Digitaria sanguinalis); details: for pest or weed control at 31 g/ha: 31 g ai/ha; for pest or weed control at 125 g/ha: 125 g ai/ha
Method in brief: as §1

[3] = tested on: morningglory (Ipomoea coccinea)
Method in brief: as §1

[4] = tested on: velvetleaf (Abutilon theophrasti); details: for pest or weed control at 125 g/ha: 125 g ai/ha
Method in brief: as §1

[5] = tested on: wheat (Triticum aestivum); details: for plant injury at 125 g/ha: 125 g ai/ha
Method in brief: as §1

[6] = tested on: woolly cupgrass (Eriochloa villosa); details: for pest or weed control at 31 g/ha: 31 g ai/ha; for pest or weed control at 125 g/ha: 125 g ai/ha
Method in brief: as §1

[7] = tested on: yellow nutsedge (Cyperus esculentus); details: for pest or weed control at 31 g/ha: 31 g ai/ha; for pest or weed control at 125 g/ha: 125 g ai/ha
Method in brief: as §1

[8] = 62 g ai/ha, postemergence, 0 is no effect, 100 is complete control, 13 to 15 days
[9] = Preemergence, 250 g ai/ha, 0 to 100 scale

With `O=C1CCCC(O)=C1C(=O)c1cnc(-c2cccnc2)n(-c2ccccc2)c1=O` [Compound 113, 5-[(2-hydroxy-6-oxo-1-cyclohexen-1-yl)carbonyl]-3-phenyl-2-(3-pyridinyl)-4(3H)-pyrimidone] the pest or weed control at 62 g/ha ([1]; Eleusine indica, pre-emergence, 62 g ai/ha, scale 0 to 100, 0 no effect, 100 complete control, read-out: Plant response rating, Goosegrass) was 90%, the pest or weed control at 125 g/ha ([1]; Eleusine indica, pre-emergence, 125 g ai/ha, scale 0 to 100, 0 no effect, 100 complete control, read-out: Plant response rating, Goosegrass) was 100% and the “Goosegrass plant response rating” value ([1]; 250 g ai/ha, 0 to 100 scale) was 100. For the same compound, the “Crabgrass, Large plant response rating (0 to 100 scale)” value [2, 8] was 90, the pest or weed control at 31 g/ha ([2]; Digitaria sanguinalis, post-emergence, postemergence, scale 0 to 100, 0 is no effect, 100 is complete control, read-out: Plant response rating, Crabgrass, Large) was 85% and the pest or weed control at 125 g/ha ([2]; Digitaria sanguinalis, post-emergence, Postemergence, scale 0 to 100 (0 no effect, 100 complete control), read-out: Plant response rating, Crabgrass, Large) was 95%. For the same compound, the pest or weed control at 250 g/ha ([2]; Digitaria sanguinalis, post-emergence, Postemergence, 250 g ai/ha, scale 0 to 100 (0 no effect, 100 complete control), read-out: Plant response rating, Crabgrass, Large) was 95%, the pest or weed control at 31 g/ha ([2]; Digitaria sanguinalis, pre-emergence, Preemergence, scale 0 to 100 (0 no effect, 100 complete control), read-out: Plant response rating, Crabgrass, Large) was 70% and the pest or weed control at 62 g/ha ([2]; Digitaria sanguinalis, pre-emergence, Preemergence, 62 g ai/ha, scale 0 to 100, 0 no effect, 100 complete control, read-out: Plant response rating, Crabgrass, Large) was 98%. For the same compound, the pest or weed control at 125 g/ha ([2]; Digitaria sanguinalis, pre-emergence, Preemergence, scale 0 to 100, 0 no effect, 100 complete control, read-out: Plant response rating, Crabgrass, Large) was 100%, the “Crabgrass, Large plant response rating” value [2, 9] was 100 and the “Morningglory plant response rating (0 to 100 scale)” value [3, 8] was 100. The pest or weed control at 31 g/ha ([3]; Ipomoea, post-emergence, 31 g ai/ha, postemergence, scale 0 to 100, 0 is no effect, 100 is complete control, read-out: Plant response rating, Morningglory) was 98%, the pest or weed control at 125 g/ha ([3]; Ipomoea, post-emergence, Postemergence, 125 g ai/ha, scale 0 to 100 (0 no effect, 100 complete control), read-out: Plant response rating, Morningglory) was 100% and the pest or weed control at 250 g/ha ([3]; Ipomoea, post-emergence, Postemergence, 250 g ai/ha, scale 0 to 100 (0 no effect, 100 complete control), read-out: Plant response rating, Morningglory) was 100%. The “Velvetleaf plant response rating (0 to 100 scale)” value [4, 8] was 95, the pest or weed control at 125 g/ha ([4]; Abutilon theophrasti, post-emergence, 360 h, Postemergence, scale 0 to 100 (0 no effect, 100 complete control), read-out: Plant response rating, Velvetleaf) was 98% and the pest or weed control at 250 g/ha ([4]; Abutilon theophrasti, post-emergence, 360 h, Postemergence, 250 g ai/ha, scale 0 to 100 (0 no effect, 100 complete control), read-out: Plant response rating, Velvetleaf) was 98%. It also gave a pest or weed control at 31 g/ha ([4]; Abutilon theophrasti, pre-emergence, 360 h, Preemergence, 31 g ai/ha, scale 0 to 100 (0 no effect, 100 complete control), read-out: Plant response rating, Velvetleaf) of 80%, a pest or weed control at 62 g/ha ([4]; Abutilon theophrasti, pre-emergence, 360 h, Preemergence, 62 g ai/ha, scale 0 to 100 (0 no effect, 100 complete control), read-out: Plant response rating, Velvetleaf) of 100% and a pest or weed control at 125 g/ha ([4]; Abutilon theophrasti, pre-emergence, 360 h, Preemergence, scale 0 to 100, 0 no effect, 100 complete control, read-out: Plant response rating, Velvetleaf) of 100%. For the same compound, the “Velvetleaf plant response rating” value [4, 9] was 100, the “Wheat plant response rating (0 to 100 scale)” value [5, 8] was 15 and the “Wheat plant response rating” value [5, 9] was 10. It also gave a plant injury at 125 g/ha ([5]; Triticum aestivum, post-emergence, Postemergence, scale 0 to 100 (0 no effect, 100 complete control), read-out: Plant response rating, Wheat) of 40%, a plant injury at 31 g/ha ([5]; Triticum aestivum, pre-emergence, Preemergence, 31 g ai/ha, scale 0 to 100 (0 no effect, 100 complete control), read-out: Plant response rating, Wheat) of 0% and a plant injury at 62 g/ha ([5]; Triticum aestivum, pre-emergence, Preemergence, 62 g ai/ha, scale 0 to 100 (0 no effect, 100 complete control), read-out: Plant response rating, Wheat) of 0%. For the same compound, the plant injury at 125 g/ha ([5]; Triticum aestivum, pre-emergence, Preemergence, scale 0 to 100, 0 no effect, 100 complete control, read-out: Plant response rating, Wheat) was 10%, the “Cupgrass, Woolly plant response rating (0 to 100 scale)” value [6, 8] was 85 and the pest or weed control at 31 g/ha ([6]; Eriochloa villosa, post-emergence, postemergence, scale 0 to 100, 0 is no effect, 100 is complete control, read-out: Plant response rating, Cupgrass, Woolly) was 85%. For the same compound, the pest or weed control at 125 g/ha ([6]; Eriochloa villosa, post-emergence, Postemergence, scale 0 to 100 (0 no effect, 100 complete control), read-out: Plant response rating, Cupgrass, Woolly) was 95%, the pest or weed control at 250 g/ha ([6]; Eriochloa villosa, post-emergence, Postemergence, 250 g ai/ha, scale 0 to 100 (0 no effect, 100 complete control), read-out: Plant response rating, Cupgrass, Woolly) was 95% and the pest or weed control at 31 g/ha ([6]; Eriochloa villosa, pre-emergence, Preemergence, scale 0 to 100 (0 no effect, 100 complete control), read-out: Plant response rating, Cupgrass, Woolly) was 5%. For the same compound, the pest or weed control at 62 g/ha ([6]; Eriochloa villosa, pre-emergence, Preemergence, 62 g ai/ha, scale 0 to 100, 0 no effect, 100 complete control, read-out: Plant response rating, Cupgrass, Woolly) was 50%, the pest or weed control at 125 g/ha ([6]; Eriochloa villosa, pre-emergence, Preemergence, scale 0 to 100, 0 no effect, 100 complete control, read-out: Plant response rating, Cupgrass, Woolly) was 85% and the “Cupgrass, Woolly plant response rating” value [6, 9] was 95. For the same compound, the “Nutsedge, Yellow plant response rating (0 to 100 scale)” value [7, 8] was 75, the pest or weed control at 31 g/ha ([7]; Cyperus, post-emergence, postemergence, scale 0 to 100, 0 is no effect, 100 is complete control, read-out: Plant response rating, Nutsedge, Yellow) was 65% and the pest or weed control at 125 g/ha ([7]; Cyperus, post-emergence, Postemergence, scale 0 to 100 (0 no effect, 100 complete control), read-out: Plant response rating, Nutsedge, Yellow) was 75%. The pest or weed control at 250 g/ha ([7]; Cyperus, post-emergence, Postemergence, 250 g ai/ha, scale 0 to 100 (0 no effect, 100 complete control), read-out: Plant response rating, Nutsedge, Yellow) was 75%, the pest or weed control at 31 g/ha ([7]; Cyperus, pre-emergence, Preemergence, scale 0 to 100 (0 no effect, 100 complete control), read-out: Plant response rating, Nutsedge, Yellow) was 65% and the pest or weed control at 62 g/ha ([7]; Cyperus, pre-emergence, Preemergence, 62 g ai/ha, scale 0 to 100 (0 no effect, 100 complete control), read-out: Plant response rating, Nutsedge, Yellow) was 80%. For the same compound, the pest or weed control at 125 g/ha ([7]; Cyperus, pre-emergence, Preemergence, scale 0 to 100, 0 no effect, 100 complete control, read-out: Plant response rating, Nutsedge, Yellow) was 90% and the “Nutsedge, Yellow plant response rating” value [7, 9] was 90.
